US12630563B2, “Macrocyclic RIP2-kinase inhibitors” (Oncodesign S.A., priority 2020, dated 2026)

molecular target: T1, recombinant hRIPK2 protein (kinase domain aa 1-299-His-tagged) (Homo sapiens, UniProt O43353); assay: RIPK2 AlphaLISA assay (displacement of bead-bound CZC-8004 from hRIPK2); format: binding; settings: recombinant hRIPK2 kinase domain 10 nM, 2 h at 23° C.
T1 construct: kinase domain aa 1-299-His-tagged; purchased Life Technologies PR7829A
From the text: RIPK2 AlphaLISA® Assay (Amplified Luminescent Proximity Homogeneous Assay)
A non-specific kinase inhibitor (CZC-8004 Cayman #916603-07-1) bound to an acceptor bead (#6772001 PerkinElmer) was mixed to the recombinant hRIPK2 protein (kinase domain aa 1-299-His-tagged—Life Technologies PR7829A) and a Ni2+-tagged donor beads (#AS101D PerkinElmer). In the presence of an inhibitor, the compound beads displacement from hRIPK2 was followed by signal loss. In a 384-well ProxiPlate@ (Perkin Elmer, 6008280) add:
2 μL RIPK2 inhibitor (in DMSO 0.8%).
2 μL human recombinant RIPK2 (10 nM diluted in AlphaLISA buffer 1×).
4 μL Mix of […] 1/1000 in AlphaLISA buffer 1×.
Homogenize using a microtiter plate shaker and incubate for 2 h at 23° C.
Read using EnVision®-Alpha Reader (PerkinElmer) according to manufacturer specifications.

T1 sequence (O43353 1-299): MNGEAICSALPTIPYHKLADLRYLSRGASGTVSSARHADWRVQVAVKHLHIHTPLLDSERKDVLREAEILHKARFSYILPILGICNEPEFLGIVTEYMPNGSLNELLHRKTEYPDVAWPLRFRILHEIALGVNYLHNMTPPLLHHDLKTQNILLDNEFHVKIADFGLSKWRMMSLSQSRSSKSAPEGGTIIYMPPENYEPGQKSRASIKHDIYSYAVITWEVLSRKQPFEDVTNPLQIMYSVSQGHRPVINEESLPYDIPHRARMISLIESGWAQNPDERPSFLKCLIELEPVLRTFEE

`CO[C@@H]1C[C@H]2COc3ccn4ncc(c4n3)-c3cc(F)cc(c3)N(C)CCN2C1=O` [Example 75, (12R,14S)-4-fluoro-12-methoxy-7-methyl-16-oxa-7,10,20,21,24-pentaazapentacyclo[15.5.2.1^2,6.0^1°,^14.0^2°,^23]pentacosa-1(23),2(25),3,5,17(24),18,21-heptaen-11-one] and `CO[C@@H]1C[C@H]2COc3ccn4ncc(c4n3)-c3cc(F)cc(c3)N(C(C)=O)CCN2C1=O` [Example 74, (12R,14S)-7-acetyl-4-fluoro-12-methoxy-16-oxa-7,10,20,21,24-pentaazapentacyclo[15.5.2.1^2,6.0^1°,^14.0^2°,^23]pentacosa-1(23),2,4,6(25),17(24),18,21-heptaen-11-one] fall in the same range of IC50: 10 to 100 nM for the first, 10 to 100 nM for the second.

`COCCO[C@@H]1C[C@H]2COc3nc4c(cnn4cc3OC)-c3cc(C#N)cc(c3)NCCN2C1=O` [Example 145, (12R,14S)-18-methoxy-12-(2-methoxyethoxy)-11-oxo-16-oxa-7,10,20,21,24-pentaazapentacyclo[15.5.2.1^2,6.0^10,^14.0^20,^23]pentacosa-1(23),2,4,6(25),17(24),18,21-heptaene-4-carbonitrile] and `C#Cc1cc2cc(c1)-c1cnn3cc(OC)c(nc13)OC[C@@H]1C[C@@H](OCCOC)C(=O)N1CCN2` [Example 146, (12R,14S)-4-ethynyl-18-methoxy-12-(2-methoxyethoxy)-16-oxa-7,10,20,21,24-pentaazapentacyclo[15.5.2.1^2,6.0^1°,^14.0^2°,^23]pentacosa-1(23),2,4,6(25),17(24),18,21-heptaen-11-one] cannot be ordered by IC50: under 10 nM for the first, under 10 nM for the second.

`CO[C@@H]1C[C@H]2COc3nc4c(cnn4cc3C)-c3cc(cc(C(=O)N(C)OC)c3)NCCN2C1=O` [Example 63, (12R,14S)-N,12-dimethoxy-N,18-dimethyl-11-oxo-16-oxa-7,10,20,21,24-pentaazapentacyclo[15.5.2.1^2,6.0^10,^14.0^20,^23]pentacosa-1(23),2,4,6(25),17(24),18,21-heptaene-4-carboxamide] and `COCc1cc2cc(c1)-c1cnn3cc(C)c(nc13)OC[C@@H]1CC(OC)C(=O)N1CCN2` (single isomer, unassigned) [Example 66, (12R or S,14S)-12-methoxy-4-(methoxymethyl)-18-methyl-16-oxa-7,10,20,21,24-pentaazapenta cyclo[15.5.2.1^2,6.0^10,14.0^20,23]pentacosa-1(23),2,4,6(25),17(24), 18,21-heptaen-11-one] cannot be ordered by IC50: under 10 nM for the first, under 10 nM for the second.

`CO[C@@H]1C[C@H]2COc3ccn4ncc(c4n3)-c3cc(F)c(F)c(c3)NCCN2C1=O` [Example 29, (12R,14S)-4,5-difluoro-12-methoxy-16-oxa-7,10,20,21,24-pentaazapentacyclo[15.5.2.1^2,6.0^10,^14.0^20,^23]pentacosa-1(23),2(25),3,5,17(24),18,21-heptaen-11-one] and `COCCO[C@@H]1C[C@H]2COc3ccn4ncc(c4n3)-c3cc(F)cc(c3)NCCN2C1=O` [Example 35, (12R,14S)-4-fluoro-12-(2-methoxyethoxy)-16-oxa-7,10,20,21,24-pentaazapentacyclo[15.5.2.1^2,6.01^0,^14.0^20,23]pentacosa-1(23),2,4,6(25),17(24),18,21-heptaen-11-one] cannot be ordered by IC50: under 10 nM for the first, under 10 nM for the second.

`COc1cc2cc(c1)-c1cnn3cc(OC)c(nc13)OC[C@@H]1C[C@@H](OCCN(C)C)C(=O)N1CCN2` [Example 135, (12R,14S)-12-[2-(dimethylamino)ethoxy]-4,18-dimethoxy-16-oxa-7,10,20,21,24-pentaazapentacyclo[15.5.2. 1^2,6.0^10,^14.0^20,^23]pentacosa-1(23),2,4,6(25),17(24),18, 21-heptaen-11-one] and `COc1cc2cc(c1)-c1cnn3cc(OC)c(nc13)OC[C@@H]1C[C@@H](OC)C(=O)N1CCN2` [Example 133, (12R,14S)-4,12,18-trimethoxy-16-oxa-7,10,20,21,24-pentaazapentacyclo[15.5.2. 1^2,6.0^10,^14.0^20,^23]pentacosa-1(23),2,4,6(25),17(24),18, 21-heptaen-11-one] cannot be ordered by IC50: under 10 nM for the first, under 10 nM for the second.

`C#Cc1cc2cc(c1)-c1cnn3ccc(nc13)OC[C@@H]1C[C@@H](OCCOC)C(=O)N1CCN2` (racemic) [Example 118, (12R,14S)-4-ethynyl-12-(2-methoxyethoxy)-16-oxa-7,10,20,21,24-pentaazapentacyclo[15.5.2.1^2,6.0^10,^14.0^20,^23]pentacosa-1(23),2(25),3,5,17(24),18,21-heptaen-11-one] and `CCO[C@H]1C[C@H]2COc3ccn4ncc(c4n3)-c3cc(cc(OC)c3)NCCN2C1=O` [Example 121, (12S,14S)-12-ethoxy-4-methoxy-16-oxa-7,10,20,21,24-pentaazapentacyclo[15.5.2.1^2,6.0^10,^14.0^20,^23]pentacosa-1(23),2,4,6(25),17(24),18,21-heptaen-11-one] cannot be ordered by IC50: under 10 nM for the first, under 10 nM for the second.

Compared with `CO[C@@H]1C[C@H]2COc3ccn4ncc(c4n3)-c3cc(cc(-c4cn(C)nn4)c3)NCCN2C1=O` [Example 119, (12R,14S)-12-methoxy-4-(1-methyl-1H-1,2,3-triazol-4-yl)-16-oxa-7,10,20,21,24-pentaazapentacyclo[15.5.2.1^2,6.0^1°,^14.0^2°,^23]pentacosa-1(23),2,4,6(25),17(24),18,21-heptaen-11-one], `CCOc1cc2cc(c1)-c1cnn3ccc(nc13)OC[C@@H]1C[C@@H](OCC)C(=O)N1CCN2` [Example 28, (12R,14S)-4,12-diethoxy-16-oxa-7,10,20,21,24-pentaazapentacyclo[15.5.2.1^2,6.0^10,^14.0^20,^23]pentacosa-1(23),2(25),3,5,17(24),18,21-heptaen-11-one] is lower in IC50: 10 to 100 nM for the first, under 10 nM for the second.

`CCO[C@@H]1C[C@H]2COc3ccn4ncc(c4n3)-c3cc(cc(C(=O)NC)c3)NCCN2C1=O` [Example 59, (12R,14S)-12-ethoxy-N-methyl-11-oxo-16-oxa-7,10,20,21,24-pentaazapentacyclo[15.5.2.1^2,6.0^10,^14.0^20,^23]pentacosa-1(23),2(25),3,5,17(24),18,21-heptaene-4-carboxamide] and `[2H]C([2H])([2H])Oc1cc2cc(c1)-c1cnn3ccc(nc13)OC[C@@H]1C[C@@H](OCC)C(=O)N1CCN2` [Example 94, (12R,14S)-12-ethoxy-4-(^2H3)methoxy-16-oxa-7,10,20,21,24-pentaazapentacyclo[15.5.2.1^2,6.0^10,^14.0^20,^23]pentacosa-1(23),2(25),3,5,17(24),18,21-heptaen-11-one] cannot be ordered by IC50: under 10 nM for the first, under 10 nM for the second.

`O=C1[C@H](O)C[C@H]2COc3ccn4ncc(c4n3)-c3cc(F)cc(c3)NCCN12` [Example 104, (12R,14S)-4-fluoro-12-hydroxy-16-oxa-7,10,20,21,24-pentaazapentacyclo[15.5.2. 1^2,6.0^10,^14.0^20,^23]pentacosa-1(23),2(25),3,5,17(24),18,21-heptaen-11-one] and `O=C1[C@H](F)C[C@H]2COc3ccn4ncc(c4n3)-c3cc(F)cc(c3)NCCN12` [Example 26, (12R,14S)-4,12-difluoro-16-oxa-7,10,20,21,24-pentaazapentacyclo[15.5.2.1^2,6.0^10,^14.0^20,^23]pentacosa-1(23),2,4,6(25),17(24),18,21-heptaen-11-one] cannot be ordered by IC50: under 10 nM for the first, under 10 nM for the second.

`COCCO[C@@H]1C[C@H]2COc3nc4c(cnn4cc3OC)-c3cc(F)cc(c3)NCCN2C1=O` [Example 129, (12R,14S)-4-fluoro-18-methoxy-12-(2-methoxyethoxy)-16-oxa-7,10,20,21,24-pentaazapentacyclo[15.5.2.1^2,6.0^10,^14.0^20,^23]pentacosa-1(23),2,4,6(25),17(24),18,21-heptaen-11-one] and `COc1cc2cc(c1)-c1cnn3cc(OC)c(nc13)OC[C@@H]1C[C@@H](OC(C)C)C(=O)N1CCN2` [Example 147, (12R,14S)-4,18-dimethoxy-12-(propan-2-yloxy)-16-oxa-7,10,20,21,24-pentaazapentacyclo[15.5.2. 1^2,6.0^10,^14.0^20,^23]pentacosa-1(23),2,4,6(25),17(24),18, 21-heptaen-11-one] cannot be ordered by IC50: under 10 nM for the first, under 10 nM for the second.

`COc1cc2cc(c1)-c1cnn3ccc(nc13)OC[C@@H]1C[C@@H](OCC3CCO3)C(=O)N1CCN2` (stereo partly drawn) [Example 120, (12R,14S)-4-methoxy-12-(oxetan-2-ylmethoxy)-16-oxa-7,10,20,21,24-pentaazapentacyclo[15.5.2.1^2,6.0^1°,^14.0^2°,^23]pentacosa-1(23),2,4,6(25),17(24),18,21-heptaen-11-one] and `O=C1[C@H](OC2CC2)C[C@H]2COc3ccn4ncc(c4n3)-c3cc(F)cc(c3)NCCN12` [Example 80, (12R,14S)-12-cyclopropoxy-4-fluoro-16-oxa-7,10,20,21,24-pentaazapentacyclo[15.5.2.1^2,6.0^1°,^14.0^2°,^23]pentacosa-1(23),2(25),3,5,17(24),18,21-heptaen-11-one] cannot be ordered by IC50: under 10 nM for the first, under 10 nM for the second.

`COCC1C[C@H]2COc3ccn4ncc(c4n3)-c3cc(F)cc(c3)NCCN2C1=O` (single isomer, unassigned) [Example 31] and `O=C1[C@H](O)C[C@H]2COc3ccn4ncc(c4n3)-c3cc(cc(-n4cccn4)c3)NCCN12` [Example 82, (12R,14S)-12-hydroxy-4-(1H-pyrazol-1-yl)-16-oxa-7,10,20,21,24-pentaazapentacyclo[15.5.2. 1^2,6.0^10,^14.0^20,^23]pentacosa-1(23),2(25),3,5,17(24),18,21-heptaen-11-one] cannot be ordered by IC50: under 10 nM for the first, under 10 nM for the second.
